ChEMBL document CHEMBL1275330, “Rational design, synthesis, and evaluation of new selective inhibitors of microbial class II (zinc dependent) fructose bis-phosphate aldolases” (J Med Chem, 2010)
“And” between values parts separate entries of the source, which are not always exact repeats. Equal values may be shown once.

How the values were obtained:
[1] = molecular target: T1, Fructose-bisphosphate aldolase (Candida albicans (strain SC5314 / ATCC MYA-2876) (Yeast), UniProt Q9URB4); assay: Inhibition of Candida albicans zinc dependent class 2 Fba
T1 sequence (Q9URB4 whole entry): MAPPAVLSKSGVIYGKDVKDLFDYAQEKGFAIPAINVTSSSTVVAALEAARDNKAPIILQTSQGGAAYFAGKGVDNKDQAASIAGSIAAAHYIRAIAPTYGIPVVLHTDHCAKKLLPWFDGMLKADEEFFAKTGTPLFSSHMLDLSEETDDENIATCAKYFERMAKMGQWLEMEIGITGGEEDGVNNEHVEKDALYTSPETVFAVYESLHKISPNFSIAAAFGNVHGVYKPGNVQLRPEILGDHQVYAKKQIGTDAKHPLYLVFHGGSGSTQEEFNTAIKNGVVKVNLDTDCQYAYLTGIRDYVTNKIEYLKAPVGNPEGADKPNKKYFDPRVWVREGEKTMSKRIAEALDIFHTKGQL

[2] = molecular target: T2, Fructose-bisphosphate aldolase A (Oryctolagus cuniculus, UniProt P00883)
T2 sequence (P00883 whole entry): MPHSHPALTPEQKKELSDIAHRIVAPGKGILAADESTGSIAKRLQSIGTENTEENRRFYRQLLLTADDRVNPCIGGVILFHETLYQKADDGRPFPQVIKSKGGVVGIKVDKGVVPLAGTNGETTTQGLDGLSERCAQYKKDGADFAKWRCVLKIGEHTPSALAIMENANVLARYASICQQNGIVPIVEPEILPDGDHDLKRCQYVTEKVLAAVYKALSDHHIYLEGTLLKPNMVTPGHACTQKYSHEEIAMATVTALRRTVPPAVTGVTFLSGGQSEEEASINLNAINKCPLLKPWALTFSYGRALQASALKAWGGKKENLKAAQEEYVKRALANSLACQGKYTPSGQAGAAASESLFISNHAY

[3] = molecular target: T3, Fructose-bisphosphate aldolase (Helicobacter pylori (strain ATCC 700392 / 26695) (Campylobacterpylori), UniProt P56109)
T3 sequence (P56109 whole entry): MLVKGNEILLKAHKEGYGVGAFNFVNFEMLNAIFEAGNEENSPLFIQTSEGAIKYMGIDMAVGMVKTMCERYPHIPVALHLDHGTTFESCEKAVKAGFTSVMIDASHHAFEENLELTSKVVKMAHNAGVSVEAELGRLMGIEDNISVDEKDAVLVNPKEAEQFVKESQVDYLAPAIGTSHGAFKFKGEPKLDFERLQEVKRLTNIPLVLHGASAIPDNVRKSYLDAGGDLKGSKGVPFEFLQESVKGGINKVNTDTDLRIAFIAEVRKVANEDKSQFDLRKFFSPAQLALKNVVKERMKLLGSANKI

[4] = molecular target: T4, Fructose-bisphosphate aldolase class II (Yersinia pestis, UniProt A0A380PJR2)
T4 sequence (A0A380PJR2 whole entry): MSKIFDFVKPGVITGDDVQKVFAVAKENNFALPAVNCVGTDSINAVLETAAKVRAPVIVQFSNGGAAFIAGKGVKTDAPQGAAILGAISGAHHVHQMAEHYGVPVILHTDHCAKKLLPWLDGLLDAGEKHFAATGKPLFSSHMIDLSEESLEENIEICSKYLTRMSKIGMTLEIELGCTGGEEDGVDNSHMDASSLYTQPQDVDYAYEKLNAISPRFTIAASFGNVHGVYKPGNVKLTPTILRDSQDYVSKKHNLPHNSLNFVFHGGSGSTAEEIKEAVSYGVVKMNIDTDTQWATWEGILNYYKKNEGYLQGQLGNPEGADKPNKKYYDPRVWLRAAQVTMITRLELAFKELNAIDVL

[5] = molecular target: T5, Fructose-bisphosphate aldolase (Mycobacterium tuberculosis, UniProt P9WQA3)
T5 sequence (P9WQA3 whole entry): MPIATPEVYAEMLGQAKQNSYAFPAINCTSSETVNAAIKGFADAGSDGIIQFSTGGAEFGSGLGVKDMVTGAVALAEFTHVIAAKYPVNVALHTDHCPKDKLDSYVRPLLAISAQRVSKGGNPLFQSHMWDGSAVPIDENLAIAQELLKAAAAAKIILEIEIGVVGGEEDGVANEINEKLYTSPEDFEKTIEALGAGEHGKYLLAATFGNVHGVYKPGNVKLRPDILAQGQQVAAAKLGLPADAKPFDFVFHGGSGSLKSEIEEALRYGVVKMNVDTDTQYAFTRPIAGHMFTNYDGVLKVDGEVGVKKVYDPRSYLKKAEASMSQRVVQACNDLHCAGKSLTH

CCCCCC(=O)OCCCCN(O)C(=O)COP(=O)(O)O
Ki [1]: 0.28 µM and 0.276 µM

O=C(COP(=O)(O)O)N(O)CCCO
Ki [2]: 2500 µM

O=C(COP(=O)(O)O)N(O)CCCCOP(=O)(O)O
IC50 [3]: 0.131 µM
IC50 [4]: 0.036 µM
IC50 [1]: 0.0048 µM
Ki [1]: 0.003 µM and 0.00325 µM
IC50 [5]: 0.0032 µM
IC50 [2]: 112 µM

O=C(COP(=O)(O)O)[C@@H](O)[C@H](O)[C@H](O)COP(=O)(O)O
Ki [4]: 55 µM
Ki [5]: 21 µM

O=C(COP(=O)(O)O)N(O)CCCCO
Ki [1]: 0.3 µM and 0.297 µM

CCCCCCCCCCCC(=O)OCCCCN(O)C(=O)COP(=O)(O)O
Ki [1]: 0.8 µM and 0.815 µM
Ki [2]: 67 µM
